Assay results as given in patent publication US20160067211A1, “PHARMACEUTICAL COMPOSITION” (Eberhard Karls Universitaet Tuebingen Medizinische Fakultaet, priority 2013, published 2016).

What was measured:
[1] = test system: histon protein H3 acetylation in BLM melanoma cells; experiment: Western blot of acetylated histon H3, BLM; assay type: cell-based, human; conditions: 100 μM, 24 hours, vs. DMSO control
Procedure: FIG. 4: 6-PN and 8-PN induce a hyper acetylation in SK-MEL-28 melanoma cells. Western blot analysis of acetylated histon complex H3 in cellular lysates of BLM and SK-MEL-28 cells treated with 100 μM 6-PN or 8-PN for 1, 2, 4, 12 and 24 h, or with 100 μM SAHA (as reference HDACi) for 24 h. Equal protein loading was verified by vinculin staining (lower rows). At 24 hours (BLM) and 2 hours (SK-MEL-28) after the PN treatment a prominent up-regulation of ac-H3 is detectable. The protein expression levels were estimated performing a densitometric analysis.
The following antibodies were used: Anti-Vinculin and Anti-Actin (1:5000, Sigma-Aldrich), Anti-Acetyl-Histon H3 (1:5000, Millipore, Billerica, USA), Anti-Caspase-3 (1:1000), Anti-AKT, Anti-pAKT, Anti-ERK, Anti-pERK, […], Anti-p70S6 Kinase, and Anti-pS6 protein (1:1000), all from Cell Signaling, Frankfurt, Germany), Anti-LC3 (1:5000, Sigma-Aldrich).
An incubation of cells with HDACi induces generally a hyperacetylation of histon proteins. Therefore, the acetylation status of the histon protein H3 after treatment with 6-PN or 8-PN was investigated. Corresponding to the HDAC screening results, a direct effect was monitored. […] SAHA was used as control HDACi (at 100 μM, 24 hours treatment).

[2] = test system: MCF-7 breast cancer cells; experiment: MUH proliferation assay, MCF-7; assay type: cell-based; conditions: MCF-7, rising concentrations 0.1 μM to 100 μM, 48 hours
Procedure: FIG. 6: 6-PN and 8-PN inhibit the growth of MCF-7 and HT-29. (A, B) MUH proliferation assay of HT-29 colon cancer cells and MCF-7 breast cancel cells treated with increasing concentrations of 6-PN and 8-PN (0.1 μM to 100 μM) for 48 hours. Shown are the mean±S.A.; the experiments were performed in quadruplicates.
The cells were seeded in triplicates in 96-well plates at a density of 2,500 cells per well in 50 μl medium (5×10^4 cells per milliliter). After 24 hours, the medium was replaced by medium containing 6-PN, 8-PN (dissolved in DMSO), TSA (dissolved in EtOH) or SAHA (dissolved in DMSO) at the concentrations to be tested with or without the addition of the necrosis inhibitor IM-54 at 5 μM (Calbiochem, Darmstadt, Germany). Cells treated with culture medium without or with DMSO served as controls. The assay was started following an incubation of 24 hours. The medium was discarded, each well was washed two times with PBS (without Ca^++ and Mg^++) and 100 μl of a solution containing […] of 4-methyl umbellipheryl heptanoate per ml PBS was added. Plates were incubated at 37° C. for 1 hour and measured in a Fluoroskan II (Lab Systems, Helsinki, Finland) with a […]. The intensity of fluorescence indicates the number of viable cells in the wells. […]

[3] = test system: estrogen receptors of the rat uterus; conditions: cited from earlier work
chicken embryos = experiment: Embryo toxicity testing in chicken embryos; assay type: in vivo; conditions: 100 μM in ethanol and PBS, after 72 hours
Procedure: FIG. 11: 6-PN and 8-PN reduce proliferation and invasion of BLM and LOXIMVI melanoma cells in human epidermal skin reconstructs and induce little embryo toxicity. (A) BLM melanoma cells and keratinocytes were seeded on top of a collagen matrix populated by fibroblasts. After 16 days a keratinizing stratified epithelium with a rudimentary corium is formed. […] (B) Similar results were obtained for LOXIMVI melanoma cells under the same treatment conditions. Only nests of dead, MIB1 negative LOXIMVI cells were detected after treatment with the PNs. (C) Chicken embryos stage 13HH (corresponding to 6 human gestational weeks) were exposed to DMSO as control, 100 μM 6-PN or 100 μM 8-PN to determine LD50 values. Survival rates after 24 hours, 48 hours, and 72 hours are depicted in a Kaplan-Meier plot.
Fertilized eggs of leghorn chickens (Gallus gallus domesticus) were incubated at 38° C. in a temperature-controlled, humidified brooder. […]
Due to the detected cytotoxic effects on cancer cells and of melanocytes in vitro, the determination of in vivo embryotoxicity was of great interest. To this end, 2-day chicken embryos were treated for 24, 48 and 72 hours with 100 μM 6-PN or 100 μM 8-PN to monitor survival as readout for lethal embryotoxicity (FIG. 11C). […]

In the case of `CC(C)=CCc1c(O)cc(O)c2c1OC(c1ccc(O)cc1)CC2=O` (stereo not shown) [8-PN, 5,7-Dihydroxy-2-(4-hydroxy-phenyl)-8-(3-methyl-but-2-enyl)-chroman-4-one], the “histon complex H3 acetylation” value [1] is listed as “massive increase”, the cell proliferation [2] is listed as “severe reduction” and the “binding affinity for estrogen receptors” value [3] is listed as “strong binding affinity”. The embryos survived (chicken embryos) was 8/10.
